Test results reported in the METLIN SMRT retention time set (Domingo-Almenara et al. 2019).

Assay: gradient 5% acetonitrile 3 min, to 50% in 2 min, to 85% in 15 min, held 3 min, 100 µL/min
Conditions: column: Zorbax Extend-C18 2.1 x 50 mm; eluents: water / acetonitrile, 0.1% formic acid
How it was run: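 Retention time was recorded from adduct peaks, which were picked computationally and each inspected manually. Pure standards ran in mixtures of ~100 molecules on HPLC coupled to a quadrupole time-of-flight mass spectrometer, in positive and negative ionization mode, through a Zorbax Extend-C18 column (2.1 × 50 mm, 1.8 μm) at 100 μL/min. Eluents were water and acetonitrile, each with 0.1% formic acid.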

| RP-LC retention time [s] | SMILES |
| --- | --- |
| 662 | O=C(O)C1CCN(C(=O)CCc2c[nH]c3ccccc23)CC1 |
| 809 | O=C(NC1CC1)c1cc2cc(Cl)ccc2[nH]1 |
| 754 | Clc1ccc(N2CCN(Cc3cc4ccccn4n3)CC2)cc1 |
| 611 | CCC1=C(C(=O)Nc2ccccc2)C2CCCC3(C2)NCCCN13 (centres undefined) |
| 714 | CCc1nc2cc(N3CCC(C(=O)N4CCCC4)CC3)cnc2nc1CC |
| 1050 | CCOC(=O)c1c(C)oc2ncnc(NCc3ccc4c(c3)OCO4)c12 |
| 642 | COc1ccc(-c2nc(C)cc(C)c2CNS(=O)(=O)c2cccs2)cc1 |
| 1070 | O=C(Nc1ccc2c(c1)CCN2S(=O)(=O)c1ccccc1)Nc1cc(F)ccc1F |
| 699 | O=C(Nc1ccccc1)c1cnn2c1CCCC2 |
| 654 | CCN(CCCNC(=O)CCc1nnc2ccc(-c3ccccc3)nn12)c1ccccc1 |
| 984 | COc1ccc(-n2ccc(=O)c(-c3nc(-c4ccccc4OCc4ccccc4)no3)n2)cc1 |
| 1000 | C=CCN1C(=O)COc2ccc(-c3nc(NC(=O)Cc4ccccc4)sc3C)cc21 |
| 624 | CCOC(=O)Cc1csc(NC(=O)Cc2csc(Nc3cc(C)ccn3)n2)n1 |
| 782 | CN(C)CC(O)Cn1c2ccc(Br)cc2c2cc(Br)ccc21 (centres undefined) |
| 926 | Cn1c(=O)sc2cc(S(=O)(=O)N3CCC(C(=O)Nc4ccc(Cl)cc4)CC3)ccc21 |
| 842 | Cc1ccc(-c2nc(-c3ccc4ncn(C)c4c3)no2)cc1C |
| 669 | CC(=O)N1CCc2cc(N3CC(C(=O)NCCC(C)C)CC3=O)ccc21 (centres undefined) |
| 918 | CC(C)NC(=O)c1ccc(OCC2CCN(C(=O)c3ccc(Cl)cc3)CC2)cc1 |
| 711 | CC(C)c1ccc2c(c1)-c1ccccc1S(=O)(=O)N2CC(=O)NCc1cccnc1 |
| 693 | O=C(CC1=C2CCCCC2NC1=O)Nc1ccccc1F (centres undefined) |
| 767 | Cc1cc(-c2ccc3c(c2)CCN3C(=O)C2CCCO2)on1 (centres undefined) |
| 596 | CNC(=O)C1CN(S(=O)(=O)c2ccc(C)cc2)CC12CCCC2 (centres undefined) |
| 847 | C[C@@H]1C[C@H]2[C@@H]3C[C@H](F)C4=CC(=O)C(Cl)=C[C@]4(C)[C@@]3(F)[C@@H](O)C[C@]2(C)[C@@]1(O)C(=O)CO |
| 863 | Cc1cc(C)c(C(=O)N2CCC(CC(=O)NC(c3cccs3)C(C)C)CC2)[nH]1 (centres undefined) |
| 1220 | CCc1ccc(S(=O)(=O)c2cnc(N3CCN(c4cccc(C)c4)CC3)nc2N)cc1 |
| 637 | O=C(c1ccc2c(c1)OCO2)N1C[C@H]2C[C@H](C1)[C@H]1CCCC(=O)N1C2 |
| 728 | COC(=O)c1cc2c([nH]c1=O)CC(c1ccc(Cl)cc1)CC2=O (centres undefined) |
| 577 | O=C(NCc1ccc(F)cc1)N1CC(n2ccnc2)C1 |
| 795 | O=C(Nc1cc(-c2ccccn2)no1)c1ccc(F)cc1 |

Second part, the molecule before the results:

| SMILES | RP-LC retention time [s] |
| --- | --- |
| Cc1nc(-c2csc(S(=O)(=O)N3CCC(C(=O)N4CCN(C)CC4)CC3)c2)no1 | 616 |
| CCCN1CCN(c2ccc(-c3nc(-c4ccccc4)no3)cn2)CC1 | 715 |
| CC(C)N1C(=O)C2(CCCCC2)C1C(=O)N1CCCCC1 (centres undefined) | 722 |
| COC(=O)c1cc(S(=O)(=O)N2CCCC2C(=O)NCc2ccccc2)cn1C (centres undefined) | 781 |
| Cc1ccc(-c2nc(C3CC(=O)N(c4ccc(F)cc4)C3)no2)c(C)c1 (centres undefined) | 1120 |
| O=[N+]([O-])c1ccc(NN=C(c2ccccc2)c2ccccc2)nc1 | 1300 |
| Cc1cccc(N2CCN(C(=O)Cn3c(=O)c4nnc(C)n4c4ncccc43)CC2)c1 | 738 |
| CC1CN(C(=O)C2CCN(S(=O)(=O)c3cccnc3)CC2)c2ccccc2O1 (centres undefined) | 825 |
| CN1C(=O)c2ccccc2Oc2ccc(C(=O)N3CCCCCC3)cc21 | 846 |
| NC(=O)c1c(NC(=O)C2COc3ccccc3O2)sc2c1CCN(Cc1ccccc1)C2 (centres undefined) | 587 |
| O=C(NC[C@H](O)CO)c1ccncc1Nc1ccc(I)cc1F | 671 |
| CCN1CCN(C(=O)C(C)n2c(=O)c(C(F)(F)F)nc3cc(C)c(C)cc32)CC1 (centres undefined) | 702 |
| O=S(=O)(Cc1cccc(F)c1)NCCc1ccsc1 | 852 |
| CCOC(=O)c1ccccc1NC(=O)Cn1c(-c2ccc(F)cc2)nc(C)cc1=O | 1320 |
| COc1ccc(Cl)cc1S(=O)(=O)N1CCCC(C(=O)Nc2ccc(C)c(C)c2)C1 (centres undefined) | 1080 |
| Cc1cccc(-c2nn3c(N4CCN(c5ccccn5)CC4)cc(C)nc3c2C)c1 | 648 |
| Cc1oc(C2CCN(S(=O)(=O)c3cccc(F)c3)CC2)nc1C(=O)N1CCCC1 | 913 |
| CC(C)(C)C(=O)N1CCC(C(=O)Nc2ccc(S(=O)(=O)N3CCCC3)cc2)CC1 | 792 |
| O=C(NCC1CCCO1)c1nc(-c2ccnc(N3CCCCC3)c2)no1 (centres undefined) | 654 |
| CN(C)c1ccc(CNC(=O)CCc2c(-c3ccc(Br)cc3)nc3ccccn23)cc1 | 599 |

| SMILES | RP-LC retention time [s] |
| --- | --- |
| C=CCN1C(=O)C2(c3ccccc31)c1[nH]c3ccccc3c1CCN2C(C)=O (centres undefined) | 836 |
| Cn1cc(S(=O)(=O)N2CCC(C(=O)NCc3ccccc3)CC2)cc1C(=O)N1CCCC1 | 1040 |
| Cc1ccc(S(=O)(=O)N2CCCN(C)c3ccccc32)cc1C | 603 |
| CCCNC(=O)N1CCCC1c1nc(-c2ccccc2)no1 (centres undefined) | 816 |
| O=C(NC1(c2nc(-c3ccccc3)no2)CCCCC1)c1cccc(Cl)c1 | 1230 |
| C=CCNc1c(C(=O)OC)c(=O)[nH]c2c(Cl)cccc12 | 700 |
| Cc1ccccc1NC(=O)C1CCCN(c2ncnc3c2nc2n3CCCCC2)C1 (centres undefined) | 766 |
| CC(=O)Oc1ccc2c(=O)c(Oc3ccc([N+](=O)[O-])cc3)c(C)oc2c1 | 854 |
| COC(=O)C1=CN(c2cccc(F)c2)c2ccc(F)cc2S1(=O)=O | 838 |
| COc1ccc(CN2C(=O)[C@H](OC)[C@@H]2C2=CCN(C(=O)C3(c4ccccc4)CC3)CC2)cc1 | 870 |
| CCCCNC(=O)CSc1cc(N2CCC(C(=O)NC3CC3)CC2)ncn1 | 615 |
| Cc1nc2cc(-c3noc(-c4ccc(Cl)cc4Cl)n3)ccc2o1 | 1250 |
| Cc1oc(C2CCN(S(=O)(=O)c3cccc(Cl)c3)CC2)nc1C(=O)N(C)C | 864 |
| O=C(Nc1cccc(N2CCCCC2=O)c1)c1ccc(Br)o1 | 680 |
| COc1ccc(C(=O)N2CCC(COc3ccc(C(=O)NC(C)C)cc3)CC2)cc1 | 820 |
| CC(C)c1csc(-c2csc(S(=O)(=O)NCc3ccc(Br)cc3)c2)n1 | 1190 |
| COc1nccnc1N1CCC(NC(=O)c2ccc3cc[nH]c3c2)C1 (centres undefined) | 633 |
| CC(=O)N1CCc2cc(N3CC(C(=O)Nc4cc(F)cc(F)c4)CC3=O)ccc21 (centres undefined) | 772 |
| CC(C)c1cc(C(=O)Nc2ccc(F)cc2F)nc2ccnn12 | 1160 |
| COc1ncc(C(=O)Nc2ccc(F)cc2C)c(C)n1 | 638 |

| SMILES | RP-LC retention time [s] |
| --- | --- |
| CC(C)CN(CC(=O)N(Cc1ccco1)CC1CCCO1)C(=O)c1ccc(F)cc1 (centres undefined) | 990 |
| CCOc1ccccc1NC(=O)N1C[C@H](c2nc(-c3cccnc3)no2)[C@@H](C)C1 | 937 |
| CCC(CC)C(=O)N1CCCC(c2nc(CNC(=O)C3CCC3)cs2)C1 (centres undefined) | 777 |
| O=C(O)C1CCN(S(=O)(=O)c2cccc([N+](=O)[O-])c2)CC1 | 663 |
| O=C(NCc1ccccc1)N1CCCC1c1nc(-c2ccccc2)n[nH]1 (centres undefined) | 731 |
| CN1C(=O)c2ccccc2Sc2cc(-c3noc(CNC(=O)c4ccco4)n3)ccc21 | 702 |
| Cc1noc([C@@H]2CC(F)(F)CN2C(=O)c2occc2C)n1 | 756 |
| O=C1CCCC(=O)C1C(=O)c1ccc(C(F)(F)F)cc1[N+](=O)[O-] | 1070 |
| COc1ccc(CN2C[C@@H]3C(=O)N(CCc4ccccc4)C(=O)[C@@H]3C2)c(OC)c1 | 728 |
| Cc1cc2nc(C(F)(F)F)c(=O)n(C(C)C(=O)NCCCOC(C)C)c2cc1C (centres undefined) | 1140 |
| CCN1CCC(CCNC(=O)C2CCc3sc(C(=O)N4CCCC4)cc3C2)CC1 (centres undefined) | 582 |
| C[C@H]1C[C@H]2[C@@H]3CCC4=CC(=O)C=C[C@]4(C)[C@H]3C(=O)C[C@]2(C)[C@@]1(O)C(=O)CO | 775 |
| Cc1cc(C)cc(Nc2c(-c3ccc4c(c3)OCO4)nc3cnccn23)c1 | 984 |
| Cc1nc(C)c(C(=O)NCc2ccc3c(c2)ncn3C(C)C)s1 | 568 |
| CN1C(=O)COc2ccc(-c3csc(NC(=O)c4ccco4)n3)cc21 | 806 |
| O=C1CCCc2cc(S(=O)(=O)NCCc3ccc(Cl)cc3)ccc2N1 | 800 |
| CC(C)c1nnc(NC(=O)C2CCN(C(=O)c3ccccc3F)CC2)s1 | 727 |
| Cc1nc2scc(C)n2c(=O)c1NC(=O)CCSc1ccccc1 | 675 |
| Cc1ccc(NC(=O)Cc2csc3nc(-c4ccccc4)cn23)c(Br)c1 | 872 |
| CCCS(=O)(=O)N1CCC(N2C[C@H](OC)[C@@H]2c2cccnc2)CC1 | 561 |
